{"source": "patent US10393636B2", "about": "(priority 2017, dated 2019)", "origin": "cited, not measured here", "data": [{"smiles": "CN[C@H]1CC[C@@H](c2ccc(Cl)c(Cl)c2)c2ccccc21", "note": "[Sertraline]", "values": [{"measurement": "Log P", "value": 5.06}]}]}
